Source: BindingDB's records for doi:10.1016/j.bmcl.2012.12.028 (Pfizer, 2013)

Target: T1, P-selectin (Homo sapiens, UniProt P16109)
T1 sequence (P16109 whole entry): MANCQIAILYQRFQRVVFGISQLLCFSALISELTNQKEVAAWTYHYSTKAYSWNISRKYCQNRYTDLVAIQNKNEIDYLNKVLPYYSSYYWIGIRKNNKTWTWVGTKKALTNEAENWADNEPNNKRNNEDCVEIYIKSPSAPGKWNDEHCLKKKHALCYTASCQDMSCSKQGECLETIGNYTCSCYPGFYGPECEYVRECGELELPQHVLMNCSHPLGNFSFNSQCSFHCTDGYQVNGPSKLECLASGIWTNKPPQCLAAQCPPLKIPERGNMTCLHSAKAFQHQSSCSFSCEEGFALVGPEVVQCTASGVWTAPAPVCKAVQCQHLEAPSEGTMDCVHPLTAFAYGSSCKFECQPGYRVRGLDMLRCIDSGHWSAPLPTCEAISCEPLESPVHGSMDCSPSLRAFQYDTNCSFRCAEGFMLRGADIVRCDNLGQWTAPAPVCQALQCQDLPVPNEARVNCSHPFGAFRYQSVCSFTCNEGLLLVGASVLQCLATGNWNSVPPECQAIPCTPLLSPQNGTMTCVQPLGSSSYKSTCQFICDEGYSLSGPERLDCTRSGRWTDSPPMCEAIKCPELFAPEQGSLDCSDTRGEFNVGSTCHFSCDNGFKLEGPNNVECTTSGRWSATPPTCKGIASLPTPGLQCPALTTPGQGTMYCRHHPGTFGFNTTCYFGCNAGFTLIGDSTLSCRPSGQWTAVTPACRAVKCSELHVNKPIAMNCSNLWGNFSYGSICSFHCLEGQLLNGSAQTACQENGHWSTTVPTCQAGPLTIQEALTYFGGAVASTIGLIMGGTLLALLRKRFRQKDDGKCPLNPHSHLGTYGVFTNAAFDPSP
Test: Inhibition of P-selectin aggregation in platelet surface (unknown origin)

IC50 [µM]	SMILES
1.2	CN1CCC(NC(=O)c2cnc(NCc3cc(Cl)ccc3Cl)nc2NC2CCCC2)CC1
1.2	CN1CCC(NC(=O)c2cnc(Nc3cc(Cl)cc(Cl)c3)nc2NC2CCOCC2)CC1
0.43	CN1CCC(NC(=O)c2cnc(Nc3cc(Cl)cc(Cl)c3)nc2N[C@H]2CCCCNC2=O)CC1
1	Cc1cc(-c2cnc(Nc3cc(Cl)cc(Cl)c3)nc2NC2CCC(N(C)C)CC2)on1 (stereo not given)
0.4	CN1CCC(NC(=O)c2cnc(Nc3cc(Cl)cc(Cl)c3)nc2NC2CCC(N(C)C)CC2)CC1 (stereo not given)
2.2	CN1CCC(NC(=O)c2cnc(Nc3cc(Cl)cc(Cl)c3)nc2N[C@@H]2COC[C@H]2O)CC1
1.1	CN1CCC(NC(=O)c2cnc(NCc3cc(Cl)ccc3Cl)nc2NC2CCC(N(C)C)CC2)CC1 (stereo not given)
0.58	CC[C@@H](CO)Nc1nc(Nc2cc(Cl)cc(Cl)c2)ncc1C(=O)NC1CCN(C)CC1
> 80	CN1CCC(NC(=O)c2cnc(NCc3cc(Cl)ccc3Cl)nc2NC2CCNCC2)CC1

Continued, molecule first:

SMILES	IC50 [µM]
COc1ccccc1CNc1ncc(C(=O)NCCCN2CCCC2=O)c(NC2CCCC2)n1	17
O=C(NCCCN1CCOC1=O)c1cnc(NCc2cc(Cl)ccc2Cl)nc1NC1CCCC1	7.4
COc1ccccc1CNc1ncc(C(=O)NCCCCN(C)C)c(NC2CCCC2)n1	7.1
COc1ccccc1CNc1ncc(C(=O)NCCNC(C)=O)c(NC2CCCC2)n1	6.6
O[C@@H]1COC[C@H]1Nc1nc(Nc2cc(Cl)cc(Cl)c2)ncc1-c1cccnc1	3
COc1ccccc1CNc1ncc(C(=O)NC2CCN(C)CC2)c(NC2CCCC2)n1	1.5
COc1ccccc1CNc1ncc(C(=O)NCCCO)c(NC2CCCC2)n1	10
O[C@@H]1COC[C@H]1Nc1nc(Nc2cc(Cl)cc(Cl)c2)ncc1-c1ccc(F)cc1	> 80
Cc1cc(-c2cnc(Nc3cc(Cl)cc(Cl)c3)nc2NC2CCNCC2)on1	1.6
O=C(NCCCN1CCCC1=O)c1cnc(NCc2cc(Cl)ccc2Cl)nc1NC1CCCC1	3.1
O[C@@H]1COC[C@H]1Nc1nc(Nc2cc(Cl)cc(Cl)c2)ncc1Br	3.9
